From patent EP2054729B1, “PROCESS AND APPARATUS FOR ION CHANNEL CHARACTERIZATION” (Universität Hannover, priority 2006, dated 2008)

Target: T1, connexin hCx26 (Homo sapiens, UniProt P29033)
T1 construct: made in house; host or cells: E. coli Top10
Test: Permeation (gating activity) assay with ion channel protein in lipid membrane vesicles, fluorescence detection of Lucifer Yellow release
Assay type: biochemical
Conditions: for inhibitory effect: concentration range in which inhibition of gating activity was shown, same experimental setup as for carbenoxolone, vesicles adjusted to 50 µM Ca^2+, triggered by EDTA addition or heat pulse
Description: Lipid membrane vesicles are generated by resuspending a POPC lipid film in 150 mM sodium chloride, 10 mM Tris-HCl, pH 8, containing Lucifer Yellow as a replacement for the cation species permeated by the exemplary ion channel protein.
Following centrifugation, the supernatant is removed and vesicles are suspended in the same medium for 10 minutes. As the ion channel protein, connexin hCx26, reconstituted to its hexameric form after expression in the E.coli strain Top10 (Invitrogen), using the expression plasmid pTrcHisTOPO (available from Invitrogen, Germany) containing the hCx26 gene under the control of a trc-promoter. The gene sequence is accessible at GenBank under accession number NP 003995. Cultivation was in LB-medium containing ampicillin as the selection marker at 37 °C.
For incorporation of ion channel protein, 250 µg/mL were solubilised in 30 mM octylglucoside, 150 mM sodium chloride, 10 mM Tris-HCl, pH 8 and added to 1 mL lipid membrane vesicle suspension (10 mg POPC/mL). After incubation for 1 to 12 hours under mild agitation at 4 °C, detergent was removed by dialysis for two days at 4 °C in 150 mM sodium chloride, 10 mM Tris-HCl, pH 8, including three changes of buffer volume. Finally, the vesicles were transferred by dialysis against buffer into 150 mM sodium chloride, 10 mM Tris-HCl, pH 8 at 4 °C for removal of the ion species, namely the replacement Lucifer Yellow or the physiologically permeated ion potassium, which are permeated by the ion channel protein present. […]
Starting at a basic temperature of 4 °C, the microtiter plate was heated incrementally by steps of 2 °C each using a thermostat, with intermediate or permanent measurement of fluorescence emission under irradiation at the excitation wavelength.
From a comparison of the increase of fluorescence at increasing temperatures of a reaction composition containing the effector to that measured for an identical composition, except for the absence of effector, allows to characterize the effector at its given concentration in the assay, e.g. as an inhibitor, activator or modulator of the gating activity. […]

Compound	inhibitory effect	concentration dependency of gating activity (carbenoxolone up to final concentrations of 10 mM, plate at 28 °C, result shown graphically only (Figures 9 and 10))
cobalt ions	millimolar to micromolar range	
CCCCCCCO [heptanol]	nanomolar to picomolar range	
CC1(C)[C@@H](OC(=O)CCC(=O)O)CC[C@]2(C)[C@H]3C(=O)C=C4[C@@H]5C[C@@](C)(C(=O)O)CC[C@]5(C)CC[C@@]4(C)[C@]3(C)CC[C@@H]12 [carbenoxolone]		inhibitory effect
